Where two headings read alike, the source gives them in different places.
Columns and labels:
[1] = test system: ZIKV; experiment: Plaque assay, anti-ZIKV activity in Vero cells; assay type: cell-based, Zika virus; settings: for EC50: read-out: EC50 (anti-ZIKV activity, plaque formation)
Procedure: Initially, the novel acetylarylamine-S-DACOs 4a-z were tested for their cytotoxicity and anti-ZIKV activity in Vero cells by plaque formation according to previously detailed procedure ([Xu et al., 2017]).
Vero cells were inoculated in a 12-well plate at 3 × 10^5 cells/ml and cultured overnight, the medium was discarded and cells were washed with PBS, then the ZIKV (MOI = 0.5) was added to infect at 37°C for 2 h. The cells were washed with PBS, and then a mixture of DMEM supplemented with 4% FBS and 2% low-melting agarose (Amresco, United States) was overlaid on the cells. Next, the cells were fixed with 4% paraformaldehyde for 15 min at 5d post-infection (hpi), washed twice with PBS and stained with 0.8% crystal violet for 10 min. Finally, an enzyme-linked fluorescence spot spectrometer (CTL, United States) was used for image acquisition.

[2] = MTT cytotoxicity assay in Vero cells; assay type: cell-based, African green monkey; settings: African green monkey, triplicate, >200 = highest soluble concentration not reaching 50% cytotoxicity
Procedure: (§1) MTT assay was used to detect the toxicity of the compound. Cells were seeded in 96-well plates and cultured overnight. Compounds with different concentrations were added and incubated for 96 h. Then, 20 μl of 5 mg/ml MTT (Sigma-Aldrich, United States) solution was added to each well and kept at 37°C for 4 h. Subsequently, 100 μl of 12% SDS-50% DMF (Sigma-Aldrich, United States) solution was added and incubated overnight at 37°C. After the crystalline formamidine was completely dissolved, the optical density (OD) value was measured using a microplate reader (BioTek, United States) with a wavelength of 570 nm and a reference wavelength of 630 nm.
(§2) The 50% effective concentration (EC50) and 50% cytotoxic concentration (CC50) of the compound were calculated according to the Reed and Muench method, inhibition rate of ZIKV RNA yield- [(1-drug treatment/positive control) × 100]. The data and graphs were processed using GraphPad Prism8 software, expressed as mean ± standard deviation (Mean ± SD), comparison between groups using ANOVA, p < 0.05 was considered statistically significant.

[3] = test system: Vero cells; experiment: MTT cytotoxicity assay in Vero cells; assay type: cell-based, African green monkey; settings: 96 h, triplicate, >200 = highest soluble concentration not reaching 50% cytotoxicity
Procedure: as §1, §2

[4] = Figure 3; ref Wu et al. (2017); cited from earlier work
[5] = test system: HCV; parameters: method as in Wu et al. (2017); settings: Figure 3; ref Wu et al. (2017); read-out: EC50 (anti-HCV); cited from earlier work
[6] = target: T1, ZIKV RdRp (Zika virus, UniProt A0A024B7W1); parameters: method as in Sáez-Álvarez et al., 2019; settings: positive control drug; ref Sáez-Álvarez et al., 2019; cited from earlier work
T1 construct: we expressed and purified ZIKV RdRp domain; made in house; host or cells: Escherichia coli BL21 (DE3)
T1 sequence (A0A024B7W1 2793-3423): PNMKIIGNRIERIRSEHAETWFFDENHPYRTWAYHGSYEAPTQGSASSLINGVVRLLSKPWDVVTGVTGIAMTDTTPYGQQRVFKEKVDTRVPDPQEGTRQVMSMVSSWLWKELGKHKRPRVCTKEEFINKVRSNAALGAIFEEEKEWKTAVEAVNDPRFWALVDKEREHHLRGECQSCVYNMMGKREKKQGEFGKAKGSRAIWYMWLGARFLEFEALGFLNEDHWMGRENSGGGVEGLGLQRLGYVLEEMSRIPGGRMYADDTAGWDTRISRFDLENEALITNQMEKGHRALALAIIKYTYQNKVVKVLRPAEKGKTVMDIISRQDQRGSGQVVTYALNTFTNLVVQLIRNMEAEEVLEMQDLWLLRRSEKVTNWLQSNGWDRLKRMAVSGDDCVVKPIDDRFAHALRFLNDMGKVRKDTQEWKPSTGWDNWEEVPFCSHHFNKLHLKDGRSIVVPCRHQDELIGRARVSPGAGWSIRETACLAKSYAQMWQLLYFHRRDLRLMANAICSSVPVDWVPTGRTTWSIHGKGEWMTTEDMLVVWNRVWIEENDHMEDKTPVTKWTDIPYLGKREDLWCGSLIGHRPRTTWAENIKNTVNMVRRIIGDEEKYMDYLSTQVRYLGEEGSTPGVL

[7] = Zika virus, plaque assay, independently in triplicate
[8] = plaque assay, independently in triplicate

Row | Molecule | EC50 [1, 7] | melting point | CC50 at 96 h [2] | also measured
1 | CCc1c(C2CCCCC2)nc(SCC(=O)Nc2ccc(F)cc2F)[nH]c1=O [Compound 4s, 2-[(4-cyclohexyl-5-ethyl-6-oxo-1,6-dihydropyrimidin-2-yl)thio]-N-(2,4-difluorophenyl)acetamide] | > 50 µM | 227 to 229 °C | > 200 µM | –
2 | CCc1c(CC2CCCCC2)nc(SCC(=O)Nc2cc(F)ccc2OC)[nH]c1=O [Compound 4z, 2-{[4-(cyclohexylmethyl)-5-ethyl-6-oxo-1,6-dihydropyrimidin-2-yl]thio}-N-(5-fluoro-2-methoxyphenyl)acetamide] | – | 182 to 183 °C | – | EC50 (anti-ZIKV activity, plaque formation) [1, 8]: did not show activity; EC50 [1, 8]: > 50 µM; CC50 [3]: > 200 µM
3 | NC(=O)c1ncn([C@@H]2O[C@H](CO)[C@@H](O)[C@H]2O)n1 [Ribavirin, reference compound] | 48.9 ± 3.42 µM | – | > 200 µM | SI (selectivity index, CC50/EC50 ratio) [1]: >4.09
4 | CCc1c(CC2CCCCC2)nc(SCC(=O)C(O)c2ccc(F)cc2)[nH]c1=O (stereo not shown) [compound B, reference compound] | – | – | – | CC50 [4]: 196 µM; EC50 [5]: 2.02 µM
5 | Heparin | – | – | – | inhibition of ZIKV RdRp activity [6]: significantly inhibited

More lines, main results first:

Row | EC50 [1, 7] | melting point | Molecule | CC50 at 96 h [2] | also measured
6 | > 50 µM | – | CCc1c(C2CCCCC2)nc(SCC(=O)Nc2ccccc2OC)[nH]c1=O [Compound 4a, 2-[(4-cyclohexyl-5-ethyl-6-oxo-1,6-dihydropyrimidin-2-yl)thio]-N-(2-methoxyphenyl)acetamide] | > 200 µM | –
7 | > 50 µM | 207 to 209 °C | CCc1c(C2CCCCC2)nc(SCC(=O)Nc2cccc(OC)c2)[nH]c1=O [Compound 4c, 2-[(4-cyclohexyl-5-ethyl-6-oxo-1,6-dihydropyrimidin-2-yl)thio]-N-(3-methoxyphenyl)acetamide] | 109 ± 3.19 µM | –
8 | > 50 µM | – | CCc1c(C2CCCCC2)nc(SCC(=O)Nc2ccc(OC)cc2)[nH]c1=O [Compound 4e, 2-[(4-cyclohexyl-5-ethyl-6-oxo-1,6-dihydropyrimidin-2-yl)thio]-N-(4-methoxyphenyl)acetamide] | > 200 µM | –
9 | 16.3 ± 1.31 µM | 206 to 208 °C | CCc1c(C2CCCCC2)nc(SCC(=O)Nc2ccccc2F)[nH]c1=O [Compound 4g, 2-[(4-cyclohexyl-5-ethyl-6-oxo-1,6-dihydropyrimidin-2-yl)thio]-N-(2-fluorophenyl)acetamide] | > 200 µM | SI (selectivity index, CC50/EC50 ratio) [1]: >12.27
10 | 19.4 ± 0.38 µM | 184 to 187 °C | CCc1c(C2CCCCC2)nc(SCC(=O)Nc2cccc(F)c2)[nH]c1=O [Compound 4i, 2-[(4-cyclohexyl-5-ethyl-6-oxo-1,6-dihydropyrimidin-2-yl)thio]-N-(3-fluorophenyl)acetamide] | > 200 µM | SI (selectivity index, CC50/EC50 ratio) [1]: >10.33
11 | > 50 µM | 273 to 274 °C | CCc1c(C2CCCCC2)nc(SCC(=O)Nc2ccc(F)cc2)[nH]c1=O [Compound 4k, 2-[(4-cyclohexyl-5-ethyl-6-oxo-1,6-dihydropyrimidin-2-yl)thio]-N-(4-fluorophenyl)acetamide] | > 200 µM | –
12 | > 50 µM | 190 to 192 °C | CCc1c(C2CCCCC2)nc(SCC(=O)Nc2cc(F)ccc2F)[nH]c1=O [Compound 4u, 2-[(4-cyclohexyl-5-ethyl-6-oxo-1,6-dihydropyrimidin-2-yl)thio]-N-(2,5-difluorophenyl)acetamide] | > 200 µM | –
